Experimental data from US20220162537A1, “FLUID SYSTEM FOR PRODUCING EXTRACELLULAR VESICLES COMPRISING A THERAPEUTIC OR IMAGING AGENT AND METHOD THEREOF” (CENTRE NATIONAL DE LA RECHERCHE SCIENTIFIQUE, priority 2018, published 2022).

Test system: HT29 tumors
Test: HT29 tumor growth retardation after photodynamic therapy (Kaplan-Meier)
Type: in vivo, mice
Details: photodynamic therapy with laser activation
Text: FIG. 8 illustrates Kaplan-Meier diagrams of HT29 tumor growth retardation after treatment with free mTHPC; the liposomal formulation of mTHPC (mTHPC Liposome) and mTHPC vesicles with laser activation of the drug (photodynamic therapy), compared to the same groups without laser activation (control, dotted lines).
FIG. 8 illustrates Kaplan-Meier diagrams of tumor growth retardation HT29 after treatment with free mTHPC; the liposomal formulation of mTHPC and mTHPC-EVs with laser activation of the drug (photodynamic therapy, three-dimensional therapies), compared to the same groups without laser activation (control, dotted lines). The inventors have compared the therapeutic effect of EVs mTHPC, the liposomal formulation of mTHPC and free mTHPC in terms of tumor growth, 90 days after treatment. […] Thus, compared to the liposomes, the charged vesicles of active agents obtained according to the methods of the present invention can constitute a very advantageous alternative both of the point of view of the pharmacodynamics properties and the effectiveness of the treatment carried out. The liposomes are known for the vectorization of various biomolecules such as enzymes, hormones, antisense oligonucleotides, ribozymes, proteins or DNA peptides, cancer molecules (Farjadian et al 2018). […]

SMILES: Oc1cccc(-c2c3nc(c(-c4cccc(O)c4)c4ccc([nH]4)c(-c4cccc(O)c4)c4nc(c(-c5cccc(O)c5)c5ccc2[nH]5)CC4)C=C3)c1 [mTHPC, meta-tetra (hydroxyphenyl) chlorin]
- percentage of tumors (growth 10 times higher criterion) at day 90: 20%
